Patent US10681909B2, “Herbicidal triazoles” (FMC Corporation, priority 2014, dated 2020)

Legend:
blackgrass [1] = test: Test C preemergence; assay type: in vivo, Alopecurus myosuroides; conditions: for Plant response rating (scale of 0 to 100 where 0 is no effect and 100 is complete control): Blackgrass, preemergence; for Blackgrass plant response rating (0 to 100): Preemergence, visual rating after 13 to 15 d
Outline: (§1)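 Seeds were planted in loam soil plus sand and sprayed preemergence. In parallel, potted plants in a peat-based medium were sprayed postemergence at 2 to 18 cm (1- to 4-leaf stage). Compounds were formulated in non-phytotoxic solvent with surfactant.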

soybean = test: Test C preemergence; assay type: in vivo, Glycine max; conditions: for Soybean plant response rating (0 to 100): Preemergence, visual rating after 13 to 15 d
Outline: as §1

oilseed rape = test: Test C preemergence; assay type: in vivo, Brassica napus; conditions: for Plant response rating (scale of 0 to 100 where 0 is no effect and 100 is complete control): Oilseed Rape, preemergence; for Oilseed Rape plant response rating (0 to 100): Preemergence, visual rating after 13 to 15 d
Outline: as §1

waterhemp = test: Test C preemergence; assay type: in vivo, Amaranthus rudis; conditions: for Waterhemp plant response rating (0 to 100): Preemergence, visual rating after 13 to 15 d
Outline: as §1

blackgrass [2] = test: Test D preemergence; assay type: in vivo, Alopecurus myosuroides; conditions: for Plant response rating: Blackgrass: scale 0 to 100
Outline: (§2)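 Test compounds are formulated in a non-phytotoxic solvent with surfactant. They are applied to the soil surface right after seeding in silt loam, or sprayed onto plants 2 to 18 cm tall in peat-based potting medium. Response is judged by eye against controls after 14 to 21 d.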

canarygrass = test: Test D preemergence; assay type: in vivo, Phalaris minor; conditions: for Plant response rating: Canarygrass: scale 0 to 100
Outline: as §2

Russian thistle = test: Test D preemergence; assay type: in vivo, Salsola kali; conditions: for Plant response rating: Russian Thistle: scale 0 to 100
Text: Seeds of plant species selected from bluegrass (annual bluegrass, Poa annua), blackgrass (Alopecurus myosuroides), canarygrass (Phalaris minor), chickweed (common chickweed, Stellaria media), galium (catchweed bedstraw, Galium aparine), bromegrass, down (downy bromegrass, Bromus tectorum), Russian thistle (Salsola kali), field poppy (Papaver rhoeas), field violet (Viola arvensis), foxtail, green (green foxtail, Setaria viridis), deadnettle (henbit deadnettle, Lamium amplexicaule), ryegrass, Ital. (Italian ryegrass, Lolium multiflorum), kochia (Kochia scoparia), lambsquarters (Chenopodium album), oilseed rape (Brassica napus), pigweed (Amaranthus retroflexus), chamomile (scentless chamomile, Matricaria inodora), speedwell (bird's-eye speedwell, Veronica persica), barley, spring (spring barley, Hordeum vulgare), wheat, spring (spring wheat, Triticum aestivum), buckwheat, wild (wild buckwheat, Polygonum convolvulus), wild mustard (Sinapis arvensis), oat, wild (wild oat, Avena fatua), radish, wild (wild radish, Raphanus raphanistrum), […]), barley, winter (winter barley, Hordeum vulgare), and wheat, winter (winter wheat, Triticum aestivum) were planted into a silt loam soil and treated preemergence with test chemicals formulated in a non-phytotoxic solvent mixture which included a surfactant. At the same time, these species were planted in pots containing Sunshine Redi-Earth® planting medium comprising spaghnum peat moss, vermiculite, starter nutrients and dolomitic limestone and treated with postemergence applications of the test chemicals formulated in the same manner. Plants ranged in height from 2 to 18 cm (1- to 4-leaf stage). Treated plants and controls were maintained in a controlled growth environment for 14 to 21 d after which time all species were compared to controls and visually evaluated. […] A dash (-) response means no test result.

field poppy = test: Test D preemergence; assay type: in vivo, Papaver rhoeas; conditions: for Plant response rating: Field Poppy: scale 0 to 100
Outline: as §2

field violet = test: Test D preemergence; assay type: in vivo, Viola arvensis; conditions: for Plant response rating: Field Violet: scale 0 to 100
Outline: as §2

kochia = test: Test D preemergence; assay type: in vivo, Kochia scoparia; conditions: for Plant response rating: Kochia: scale 0 to 100
Outline: as §2

oat, wild = test: Test D preemergence; assay type: in vivo, Avena fatua; conditions: for Plant response rating: Oat, Wild: scale 0 to 100
Outline: as §2

foxtail, green = test: Test D postemergence; assay type: in vivo, Setaria viridis; conditions: scale 0 to 100
Outline: as §2

deadnettle = test: Test D postemergence; assay type: in vivo, Lamium amplexicaule; conditions: scale 0 to 100
Outline: as §2

pigweed = test: Test D postemergence; assay type: in vivo, Amaranthus retroflexus; conditions: scale 0 to 100
Outline: as §2

buckwheat, wild = test: Test D postemergence; assay type: in vivo, Polygonum convolvulus; conditions: scale 0 to 100
Outline: as §2

radish, wild = test: Test D postemergence; assay type: in vivo, Raphanus raphanistrum; conditions: scale 0 to 100
Outline: as §2

[3] = 16 g ai/ha, 0 is no effect, 100 is complete control

CCOc1nc(-c2ccc(C(F)(F)F)cc2)nn1Cc1ccnc(C(F)(F)F)c1 [Compound 35, 4-[[5-ethoxy-3-[4-(trifluoromethyl)phenyl]-1H-1,2,4-triazole-1-yl]methyl]-2-(trifluoromethyl)pyridine]
35: Plant response rating (0 to 100), Blackgrass (blackgrass [2]; [3])
90: Plant response rating (scale of 0 to 100 where 0 is no effect and 100 is complete control) (blackgrass [1]; 125 g ai/ha) | Plant response rating (scale of 0 to 100 where 0 is no effect and 100 is complete control) (blackgrass [1]; 250 g ai/ha) | Blackgrass plant response rating (0 to 100) (blackgrass [1]; 31 g ai/ha) | Plant response rating (scale of 0 to 100 where 0 is no effect and 100 is complete control) (oilseed rape; 125 g ai/ha) | Plant response rating (scale of 0 to 100 where 0 is no effect and 100 is complete control) (oilseed rape; 250 g ai/ha) | Plant response rating (0 to 100), Kochia (kochia; [3]) | Plant response rating: Kochia (kochia; 62 g ai/ha) | Plant response rating: Kochia (kochia; 125 g ai/ha) | Plant response rating: Deadnettle (deadnettle; 125 g ai/ha)
15: Soybean plant response rating (0 to 100) (soybean; 62 g ai/ha)
20: Soybean plant response rating (0 to 100) (soybean; 31 g ai/ha)
100: Waterhemp plant response rating (0 to 100) (waterhemp; 31 g ai/ha) | Waterhemp plant response rating (0 to 100) (waterhemp; 62 g ai/ha) | Plant response rating (scale of 0 to 100 where 0 is no effect and 100 is complete control) (waterhemp; Waterhemp, preemergence, 250 g ai/ha) | Plant response rating: Canarygrass (canarygrass; 62 g ai/ha) | Plant response rating: Canarygrass (canarygrass; 125 g ai/ha) | Plant response rating (0 to 100), Field Poppy (field poppy; [3]) | Plant response rating: Field Poppy (field poppy; 62 g ai/ha) | Plant response rating: Field Poppy (field poppy; 125 g ai/ha) | Plant response rating: Field Violet (field violet; 62 g ai/ha) | Plant response rating: Field Violet (field violet; 125 g ai/ha) | Plant response rating: Pigweed (pigweed; 16 g ai/ha) | Plant response rating: Pigweed (pigweed; 31 g ai/ha) | Plant response rating: Pigweed (pigweed; 62 g ai/ha) | Plant response rating: Pigweed (pigweed; 125 g ai/ha) | Plant response rating: Radish, Wild (radish, wild; 31 g ai/ha) | Plant response rating: Radish, Wild (radish, wild; 62 g ai/ha) | Plant response rating: Radish, Wild (radish, wild; 125 g ai/ha)
75: Oilseed Rape plant response rating (0 to 100) (oilseed rape; 62 g ai/ha) | Plant response rating: Oat, Wild (oat, wild; 62 g ai/ha) | Plant response rating: Deadnettle (deadnettle; 62 g ai/ha)
95: Plant response rating: Blackgrass (blackgrass [2]; 125 g ai/ha) | Plant response rating: Canarygrass (canarygrass; 31 g ai/ha) | Plant response rating (0 to 100), Field Violet (field violet; [3]) | Plant response rating: Foxtail, Green (foxtail, green; 62 g ai/ha) | Plant response rating: Foxtail, Green (foxtail, green; 125 g ai/ha) | Plant response rating: Buckwheat, Wild (buckwheat, wild; 125 g ai/ha)
55: Plant response rating: Deadnettle (deadnettle; 16 g ai/ha)
85: Blackgrass plant response rating (0 to 100) (blackgrass [1]; 62 g ai/ha) | Plant response rating: Russian Thistle (Russian thistle; 125 g ai/ha) | Plant response rating: Radish, Wild (radish, wild; 16 g ai/ha)
45: Plant response rating (0 to 100), Canarygrass (canarygrass; [3])
40: Plant response rating: Blackgrass (blackgrass [2]; 31 g ai/ha) | Plant response rating (0 to 100), Oat, Wild (oat, wild; [3])
70: Plant response rating (0 to 100), Russian Thistle (Russian thistle; [3]) | Plant response rating: Foxtail, Green (foxtail, green; 16 g ai/ha) | Plant response rating: Buckwheat, Wild (buckwheat, wild; 31 g ai/ha) | Plant response rating: Buckwheat, Wild (buckwheat, wild; 62 g ai/ha)
80: Oilseed Rape plant response rating (0 to 100) (oilseed rape; 31 g ai/ha) | Plant response rating: Russian Thistle (Russian thistle; 62 g ai/ha) | Plant response rating: Oat, Wild (oat, wild; 125 g ai/ha) | Plant response rating: Foxtail, Green (foxtail, green; 31 g ai/ha)
65: Plant response rating (scale of 0 to 100 where 0 is no effect and 100 is complete control) (soybean; Soybean, preemergence, 250 g ai/ha) | Plant response rating: Blackgrass (blackgrass [2]; 62 g ai/ha) | Plant response rating: Deadnettle (deadnettle; 31 g ai/ha) | Plant response rating: Buckwheat, Wild (buckwheat, wild; 16 g ai/ha)
